Assay results from patent EP0751768B1, “ANTI-VIRAL AND ANTI-CANCER AGENT” (Radopath Pharmaceuticals International Limited, priority 1994, dated 1995).
Values joined by “and” are separate entries in the source; they are usually repeats but may differ in a detail not shown here. Equal values may be shown once.

Tests used:
[1] = system: MAC15A (murine adenocarcinoma colon); assay type: in vivo, NMR1 mice; conditions: mouse, in vivo, ip
[2] = system: M5076-reticulum cell sarcoma; experiment: Anti-tumour activity against M5076 solid tumour (tumour weight inhibition); assay type: in vivo, murine; conditions: for % Tumour Weight Inhibition: 16 days after im transplant, corn oil
Method: (§1) The in vivo anti-tumour responses of the compound according to the invention were assessed against the ascitic tumours, MAC15A murine colon adenocarcinoma and various solid tumour models. The MAC15A ascites tumour cells were transplanted into male NMR1 mice by ip innoculation at a cell density of 1 x 10^5 cells in 200µl buffer (Table I). The solid tumour models included the MAC13 and MAC16 murine colon adenocarcinomas, the B16 F1 murine melanoma and the M5076 reticulum cell sarcoma.
(§2) Treatment commenced 3 days after ip transplant or, in the case of solid tumours such as MAC13 and MAC16, treatment commenced when average tumour volumes reached 40mm^3.
(§3) The animals were located in both cases into groups of 5 to 8 animals.
(§4) The animals were sacrificed after 12 days or when tumours ulcerated, tumour volume exceeded 1000mm^3 or loss of body weight exceeded 50%.
(§5) Except where otherwise stated, the compound used was dissolved in DMSO and diluted in sterile distilled water, at appropriate concentrations before administration in a solvent volume of 200µl. Anti-tumour responses were obtained by comparing the median survival times or tumour growth inhibition against solvent controls.
(§6) % Tumour Weight Inhibition:-

[3] = system: B16F1-murine melanoma; assay type: in vivo; conditions: mouse, in vivo
[4] = system: MAC13 murine colon adenocarcinoma; experiment: Anti-tumour activity against MAC13 (tumour weight inhibition); assay type: in vivo; conditions: 12 days after im transplant, corn oil
Method: as §1, §2, §3, §4, §5, §6

[5] = system: MAC16, murine colon adenocarcinoma; experiment: Anti-tumour activity against MAC16 (tumour weight inhibition); assay type: in vivo; conditions: for % Tumour Weight Inhibition: sc transplanted, day 11 after the beginning of treatment, tumour volumes at least 40mm^3 at start, corn oil
Method: as §1, §2, §3, §4, §5, §6

[6] = system: HIV-1RF; experiment: microbe, parasite or virus in culture; assay type: cell-based, human immunodeficiency virus HIV-1RF
[7] = system: HIV-I IIIB; experiment: Acute infection assay, HIV core antigen ELISA (HIV-I IIIB); assay type: cell-based
[8] = system: Chronically infected cells (H9rf); experiment: Chronically infected cell assay, HIV-1 antigen ELISA; assay type: cell-based; conditions: Against Chronically infected cells
[9] = system: uninfected H9 cells; experiment: Toxicity in uninfected H9 cells, 14C protein hydrolysate incorporation, four days; assay type: cell-based; conditions: listed under Against Chronically infected cells; average of the lines above
Method: • (i) Acute Infection Assay. High titre virus stocks of the human immunodeficiency virus HIV-1RF were grown in H9 cells with RM1 1640 (Flow laboratories) supplemented with 10% fetal calf serum, penicillin (100IU/ml). Cell debris was removed by low speed centrifugation, and the supernatant stored at -70°C until required. In a typical assay C8166 T-lymphoblastoid CD4+ cells were incubated with 10xTCID50 HIV-1RF at 37°C for 90 minutes and then washed three times with phosphate buffered saline (PBS). Cell aliquots (2 x 10^5) were resuspended in 1.5ml growth medium in 6ml tubes, and active compounds in log dilutions [200µM to 0.2µM] were added immediately. 20mM stock solutions of each compound were made up in 70% alcohol. The compounds were stored as a powder and made up freshly in distilled water before each experiment or were stored as a […] stock solution in 70% alcohol. The final concentration of alcohol in the tissue culture medium was 1%. The cells were then incubated at 37°C in 5% CO2. […] The ELISA plates were read with a spectrophotometer. […] HIV-1 antigen in the supernatant was then measured using an ELISA. […] After 6 hours the cells were harvested and the ^14C incorporation measured. • (iii) Toxicity Assay. […] After 12, hours the cells were harvested and the ^14C incorporation measured. […] Toxicity is expressed as inhibition of uptake of ^14C protein hydrolysate. […]

[10] = in vitro; conditions: CC50 (Toxicity)
[11] = Anti-tumour activity against M5076 solid tumour (tumour weight inhibition); assay type: in vivo, murine; conditions: mouse, in vivo; ip, per day, in corn oil; M5076 study; read-out: Maximum tolerated dose
Method: as §1, §2, §3, §4, §5, §6

[12] = system: uninfected cells

O=C(O)c1cc([N+](=O)[O-])c(Cl)c([N+](=O)[O-])c1Cl [C1, 2,4-dichloro-3,5-dinitrobenzoic acid]
T/C% [1]: 243% | % Tumour Weight Inhibition ([2]; 25 mg/kg per day ip, days 1,2,4,6,9): 75% | % Tumour Weight Inhibition ([2]; 25 mg/kg per day sc, days 1,2,4,5,6,7,9): 63% | % Tumour Weight Inhibition ([2]; 50 mg/kg per day ip, days 1,4,6,9): 57% | % Tumour Weight Inhibition ([2]; 50 mg/kg per day sc, days 1,2,4,5,6,7,9): 76% | % Tumour Weight Inhibition ([2]; 75 mg/kg per day ip, days 1,4,6,9, listed as 2,4 BA): 79% and 88% | % Tumour Weight Inhibition ([2]; 75 mg/kg per day sc, days 1,4,5,7,9): 66% | activity on a split-dose schedule down to (dose) ([2]; by both ip and sc routes): 25 mg/kg body weight | inhibition of tumour growth (in words) [3]: effectively inhibited growth | % Tumour Weight Inhibition ([4]; 50 mg/kg per day ip, days 1,2,3,4,5,6,7,8,9): 39% | % Tumour Weight Inhibition ([4]; 75 mg/kg per day ip, days 1,4,5): 45% | % Tumour Weight Inhibition ([5]; 50 mg/kg per day ip, days 1,2,4,5,8): 91% | % Tumour Weight Inhibition ([5]; 75 mg/kg per day ip, days 1,2,5,8): 88% | inhibition of tumour growth (in words) ([5]; MAC16 murine colon adenocarcinoma): effectively inhibited growth | SI (Selectivity Index), Average [6]: 5 | IC50 ([6]; Human immunodeficiency virus 1, C8166, read-out: IC50 (Antiviral), Average): 11.5 µM | SI (Selectivity Index) [7]: 2 | SI (Selectivity Index), Average [7]: 3 | IC50 ([7]; Human immunodeficiency virus 1, IIIB, read-out: IC50 (Antiviral), Average): 27 µM | SI (Selectivity Index), Average ([8]; average line): 4 | IC50 ([8]; Human immunodeficiency virus 1, 96 h, four days, single determinations, read-out: IC50 (Antiviral)): 16 µM | CC50 [9]: 63 µM | CC50 [10]: 30 µM

COC(=O)c1cc([N+](=O)[O-])c(Cl)c([N+](=O)[O-])c1Cl [C3, 2,4-dichloro-3,5-dinitrobenzoic acid methyl ester]
MTD [11]: 1 mg/kg | anti-tumour activity (in words) [2]: without anti-tumour activity | % Tumour Weight Inhibition ([2]; 0.25 mg/kg per day ip, days 1,2,3,4,5,6,7,8,9): 42% | % Tumour Weight Inhibition ([2]; 0.5 mg/kg per day ip, days 1,2,3,4,5,6,7,8,9): 39% | % Tumour Weight Inhibition ([2]; 1.0 mg/kg per day ip, days 1,2,3,4,5,6,7,8,9): 41% | increase in toxicity ([2]; relative to 2,4-dichloro-3,5-dinitrobenzoic acid): 10 fold | SI (Selectivity Index) [7]: 23 | CC50 [12]: 7 µM
